Reference: patent US20170121683A1, “ARYL HYDROCARBON RECEPTOR DISRUPTION AND ENHANCEMENT” (priority 2015, published 2017)

Test system: AHR-target genes (CYP1A1 and CYP1B1) in H9 hESCs
Experiment: qPCR of AHR downstream gene targets in undifferentiated hESCs
Assay type: cell-based, human
Details: 1 μM SR-1 or 10 nM TCDD for 96 hours, compared to DMSO controls
Method: Undifferentiated H9 hESCs were treated with either DMSO (vehicle), 1 μM SR-1, or 10 nM TCDD for 96 hours in hESC growth media. Quantitative polymerase chain reaction analysis for AHR and two downstream effector gene targets (CYP1A1 and CYP1B1) are shown.
FIG. 8A. Non-adherent hematopoietic progenitor cells derived from hESCs were harvested at Day 6+3, Day 6+5, Day 6+7, and Day 6+9 time points and probed for gene expression by quantitative real-time PCR (qPCR). For each gene, Ct values were normalized to GAPDH at each time point and data is presented as relative fold-change as compared to undifferentiated hESCs. […] FIG. 8B Undifferentiated hESCs were cultured in the presence of 1 μM SR-1, 10 nM TCDD, or DMSO vehicle control for 96 hours and probed for gene expression by qPCR. For each gene, Ct values were normalized to GAPDH at each time point and data is presented as relative fold-change as compared to DMSO treated hESCs. n=3, error bars represent SEM, *p<0.05 assessed by two-way ANOVA+Tukey-Kramer multiple comparisons post-hoc test. FIG. 8C. Both adherent and non-adherent cell fractions treated with either DMSO, SR-1, or TCDD were harvested at Day 6+3, Day 6+6, and Day 6+9 and probed for viability with Sytox Blue Live/Dead Stain. Total percentage of viable cells for each group and time point are plotted. n=3.
H9 human embryonic stem cells (H9 hESCs; University of Wisconsin, Madison, Wis.) were adapted to passage as single cells using TrypLE (Invitrogen, Carlsbad, Calif.) as previously described (Ng et al. Nat. Protoc. 3, 768-76 (2008)). H9 hESCs were maintained on irradiated mouse embryonic fibroblasts in ES cell growth medium including Dulbecco's modified Eagle's medium (DMEM)/Ham's F-12 medium (F12) (Invitrogen) supplemented with 15% Knockout Serum Replacer (Invitrogen), 1 mM L-glutamine (Invitrogen), 0.1 mM β-mercaptoethanol (Sigma Aldrich, St. Louis, Mo.), 1% minimum essential medium nonessential amino acids (Invitrogen), 4 ng/mL basic fibroblast growth factor (R&D Systems Inc., Minneapolis, Minn.), and 1% penicillin-streptomycin (Invitrogen) incubated at 37° C. in a humidified atmosphere containing 5% CO2. Single-cell adapted hESCs were subjected to hemato-endothelial differentiation as spin embryoid bodies (“spin-EBs”), also previously described (Ng et al. Nat. Protoc. 3, 768-76 (2008); Knorr et al. Stem Cells Dev. 22, 1861-9 (2013); Ferrell et al., Stem Cells 33(4), 1130-41 (2015)). […]

| Compound | expression of CYP1A1 | expression of CYP1B1 |
| --- | --- | --- |
| Clc1cc2c(cc1Cl)Oc1cc(Cl)c(Cl)cc1O2 [TCDD, 2,3,7,8-tetrachlorodibenzo-p-dioxin] | significantly increased expression | significantly increased expression |
| CC(C)n1cnc2c(NCCc3ccc(O)cc3)nc(-c3csc4ccccc34)nc21 [SR-1, StemReginin-1] | reduced expression | reduced expression |
